The text below walks through data of patent US12605464B2, “Cyclohexane lipidoids for nucleic acid transfection and use thereof” (USTAV ORGANICKE CHEMIE A BIOCHEMIE AV CR V.V.I., priority 2021, dated 2026).

SMILES strings stand for the structures.

In series [1] the test system is HepG2. Briefly: Cellular toxicity of LNPs, CellTiterGlo 2.0 cell viability assay. The conditions noted are these: HepG2, 100 μM total lipid components, 24 hours, normalized to non-transfected cells. Format: cell-based, human. As for the experimental part: (§1) A human cell line derived from embryonic kidney cells expressing SV40 large T antigen (HEK293T), and human hepatocyte carcinoma cell line (HepG2) were cultured in 96-well plates (5×10^4 cells in […] of culture medium per well) in Dulbecco's modified medium (DMEM) supplemented with 10% foetal bovine serum (FBS) at 37° C. in 5% CO2. Cells were transfected with 2 μl of LNPs B07-B12 generated in triplicates in Example 20 (the final total concentration of all lipid components in the well was 20 μM) or 10 μl of LNPs (the final total concentration of all lipid components in the well was 100 μM) and subsequently incubated for 24 hours. The cytotoxicity of LNPs was analyzed in a CellTiterGlo 2.0 cell viability assay (Promega, USA). Cell viability was normalized to non-transfected cells (control).
(In general: ATP-based viability assays read luminescence as a measure of living cells.)

Series [2] concerns HEK293T. The description is as above. Format: cell-based, human. The conditions noted are these: 100 μM total lipid components, 24 hours, normalized to non-transfected cells. The method, then: as §1

With `CCCCCCCCCCCCN(CCCCCCCCCCCC)CCCNC(=O)c1cc(C(=O)NCCCN(CCCCCCCCCCCC)CCCCCCCCCCCC)cc(C(=O)NCCCN(CCCCCCCCCCCC)CCCCCCCCCCCC)c1` [TT3], the “Cytotoxicity expressed as cell viability (%)” value is listed as 15% in series [1] and 27% in series [2].
